Source: US8071786B2, “Indole compounds useful as serotonin selective agents” (Galenea Corp., priority 2005, dated 2011)
Marks after values point to notes of the source that are not given here.

Columns and labels:
5-HT2B [1] = molecular target: T1, 5-HT2B (Homo sapiens, UniProt P41595); assay: Receptor binding, competition binding assay
Procedure: (§1) For initial screens, a 10 micromolar concentration of each compound (dissolved in 10% DMSO) was incubated with the appropriate receptor preparation and percent inhibition determined for duplicate determinations each performed in duplicate. Where >50% inhibition of specific binding was measured, Ki determinations were then measured by competition binding assays in which concentrations from 1 to 100,000 nM were incubated in duplicate. For each Ki value the data represent the mean+/−SD of computer-derived estimates for N=4 separate determinations, as described (Rothman, R., Baumann, M., Savage, J., Rauser, L., McBride, A., Hufeisen, S., Roth, B. L. “Evidence for Possible Involvement of 5-HT2B Receptors in the Cardiac Valvulopathy Associated with Fenfluramine and other Serotonergic Medications” Circulation 2000, 102, 2836; Roth, B. L., Shoham, M., Choudhary, M., Khan, N. “Identification of Conserved Aromatic Residues Essential for Agonist Binding and Second Messenger Production at 5-Hydroxytryptamine 2A Receptors” Mol. Pharmacol. 1997, 52, 259; Roth, B. L., Choudhary, M., Khan, N., Uluer, A. “High-affinity Agonist Binding is not Sufficient for Agonist Efficacy at 5-Hydroxytryptamine 2A Receptors: Evidence in Favor of a Modified Ternary Complex Model” J. Pharmacol. Exp. Ther. 1997, 280, 576).
(§2) Receptor binding (Ki) in nM. When the standard deviation is given N≧3.

5-HT2C [2] = molecular target: T2, 5-HT2C (Homo sapiens, UniProt P28335); assay: Receptor binding, competition binding assay
T2 sequence (P28335 33-458): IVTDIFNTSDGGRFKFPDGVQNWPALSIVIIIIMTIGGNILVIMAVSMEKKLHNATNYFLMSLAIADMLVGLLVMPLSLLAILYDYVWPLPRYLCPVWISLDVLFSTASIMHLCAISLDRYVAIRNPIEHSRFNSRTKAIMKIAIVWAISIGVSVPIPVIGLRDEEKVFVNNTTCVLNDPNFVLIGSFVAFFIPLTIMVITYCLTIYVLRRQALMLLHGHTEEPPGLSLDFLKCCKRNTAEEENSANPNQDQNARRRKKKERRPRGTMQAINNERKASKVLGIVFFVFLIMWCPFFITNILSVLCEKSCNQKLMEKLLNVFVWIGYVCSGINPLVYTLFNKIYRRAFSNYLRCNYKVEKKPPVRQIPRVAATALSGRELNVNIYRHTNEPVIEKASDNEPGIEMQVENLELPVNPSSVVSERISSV
Procedure: as §1, §2

5-HT2A [3] = molecular target: T3, 5-HT2A (Homo sapiens, UniProt P28223); assay: Receptor binding, competition binding assay
Procedure: as §1, §2

5-HT2B [4] = molecular target: T1, 5-HT2B; assay: Phosphoinositide hydrolysis functional assay; type: cell-based; design: expressed in transfected cells; settings: for EC50: activation of phosphoinositide hydrolysis, transiently expressed receptor
Procedure: (§3) Phosphoinositide hydrolysis assays were performed with stably (5-HT2A, 5-HT2C) or transiently (5-HT2B) expressed receptors plated in 24-well culture plates. Transfected cells were loaded with […] overnight in inositol-free DMEM without serum. The next day, phosphate accumulation assays were performed in a modified Krebs-bicarbonate buffer. Kact (nmol/L) and percent Vmax (relative to 5-HT) values were calculated (Roth, B. L., Shoham, M., Choudhary, M., Khan, N. “Identification of Conserved Aromatic Residues Essential for Agonist Binding and Second Messenger Production at 5-Hydroxytryptamine 2A Receptors” Mol. Pharmacol. 1997, 52, 259; Roth, B. L., Choudhary, M., Khan, N., Uluer, A. “High-affinity Agonist Binding is not Sufficient for Agonist Efficacy at 5-Hydroxytryptamine 2A Receptors: Evidence in Favor of a Modified Ternary Complex Model” J. Pharmacol. Exp. Ther. 1997, 280, 576).
(§4) Functional Assay (EC50) in nM. Data represent mean EC50 values for activation of phospho-inositide hydrolysis in cells expressing human 5-HT2A, 5-HT2B or 5-HT2C-INI receptors, relative to serotonin at 100%. When the standard deviation is given, N≧3.

5-HT2A [5] = molecular target: T3, 5-HT2A; assay: Phosphoinositide hydrolysis functional assay; type: cell-based; design: expressed in transfected cells; settings: for EC50: activation of phosphoinositide hydrolysis, stably expressed receptor; for percent Vmax relative to serotonin at 100%, 5-HT2A: value in brackets
Procedure: as §3, §4

human 5-HT2C-INI = molecular target: T4, human 5-HT2C-INI (Homo sapiens, UniProt P28335); assay: Phosphoinositide hydrolysis functional assay; type: cell-based; settings: for EC50: activation of phosphoinositide hydrolysis, stably expressed receptor; for Emax: value in brackets, read-out: percent Vmax relative to serotonin at 100%, 5-HT2C (converted)
T4 construct: expressed in transfected cells
T4 sequence (P28335 33-458): T2 sequence (P28335 33-458)
Procedure: as §3, §4

[6] = test system: itch-associated scratching induced by compound 48-80; assay: Animal model for OCD: compound 48-80-induced scratching; type: in vivo, male Swiss-Webster mice
Procedure: (§5) The 5-HT action is at least partly mediated by 5-HT2 receptors in the skin, as shown by blocking with specific antagonists (Yamaguchi, T., Nagasawa, T., Satoh, M., Kuraishi, Y. “Itch-associated Response Induced by Intradermal Serotonin Through 5-HT2 Receptors in Mice” Neurosci. Res. 1999, 35, 77). The effect of test compounds on itch-associated scratching in the mice may indicate their action on 5-HT receptors, and a study was carried out as an animal model for OCD. The subjects were male Swiss-Webster mice, 4-6 weeks old, weighing 25-45 g. Mice were housed 5 per cage, given free access to standard mouse food and water except during experiments, and maintained in a temperature-controlled room (70° F.). Serotonin and all test drugs were made up with ascorbic acid to protect against oxidation. Two mice, one a control, the other experimental, were tested each time. Each mouse was separately placed into a plexiglas box.
Mice were injected subcutaneously between the shoulder blades with either 0.1 ml of serotonin, 0.4 mg per ml in 0.15 M saline plus ascorbic acid, 1 mg/ml, or compound 48-80 (the copolymer product of N-methyl-p-methoxyphenethylamine with formaldehyde), 1.0 mg/ml in saline plus ascorbic acid. Test compounds were injected i.p. 5 minutes before the inducer. The cumulative number of scratches with a hind leg was recorded at 5 minute intervals for 30 minutes. […]

[7] = Appetite suppression in mice, chronic assay (body weight); type: in vivo
Procedure: Mice were injected i.p. at intervals of 2 or 3 days and weighed repeatedly (6 or 7 total injections). Controls were injected with saline. Weighing and injection were carried out between 11 AM and 1 PM.

[8] = Appetite suppression in mice, acute assay (food consumption); type: in vivo; settings: for Mean food consumption 60 min. after injection: g (±SEM) Compound / Mean food consumption 90 min. after injection: g (±SEM) Compound: mice deprived of food 18 hours
Procedure: Mice were deprived of food, but not water, for 18 hours. They were then injected i.p. with test compounds dissolved in 0.9% NaCl containing 1 mg per ml ascorbic acid for protection against oxidation. Each mouse was placed in an individual cage for 30 minutes and then presented with a small petri dish containing a gel made from gelatin, powdered milk and sucrose. The dish was weighed at zero time and at 15-minute intervals for the next hour in order to quantitate food consumption. Controls were injected with saline-ascorbic acid; ±fenfluramine was used as an active control. Control consumption generally ranged from 1.5 to 2.0 grams.

[9] = test system: itch-associated scratching induced by serotonin; assay: Animal model for OCD: serotonin-induced scratching; type: in vivo, male Swiss-Webster mice; settings: for Number of Scratches as Percentage of Control: inducer Serotonin
Procedure: as §5
Mice were injected subcutaneously between the shoulder blades with either 0.1 ml of serotonin, 0.4 mg per ml in 0.15 M saline plus ascorbic acid, 1 mg/ml, or compound 48-80 (the copolymer product of N-methyl-p-methoxyphenethylamine with formaldehyde), 1.0 mg/ml in saline plus ascorbic acid. Test compounds were injected i.p. 5 minutes before the inducer. The cumulative number of scratches with a hind leg was recorded at 5 minute intervals for 30 minutes. One saline injected control and one test animal were tested together in each assay.

5-HT2C [10] = molecular target: T2, 5-HT2C; settings: background, literature; cited from earlier work
[11] = 20 mg/kg i.p. at intervals of 2 or 3 days
[12] = 30 mg/kg i.p. at intervals of 2 or 3 days
[13] = 5 mg/kg i.p. 5 minutes before inducer Serotonin

T3 sequence (P28223 whole entry): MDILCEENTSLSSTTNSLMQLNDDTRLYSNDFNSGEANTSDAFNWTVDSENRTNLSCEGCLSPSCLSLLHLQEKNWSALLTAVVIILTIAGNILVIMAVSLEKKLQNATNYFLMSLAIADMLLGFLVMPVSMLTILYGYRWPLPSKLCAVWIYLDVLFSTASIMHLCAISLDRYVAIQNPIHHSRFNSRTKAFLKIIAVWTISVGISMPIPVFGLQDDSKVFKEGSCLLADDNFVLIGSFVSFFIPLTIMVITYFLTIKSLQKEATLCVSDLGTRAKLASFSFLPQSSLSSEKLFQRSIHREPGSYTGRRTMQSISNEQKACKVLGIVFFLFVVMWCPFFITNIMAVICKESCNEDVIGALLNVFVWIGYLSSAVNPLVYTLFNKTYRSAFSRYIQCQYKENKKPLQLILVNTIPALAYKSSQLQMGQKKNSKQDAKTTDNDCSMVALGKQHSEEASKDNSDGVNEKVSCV
T1 sequence (P41595 whole entry): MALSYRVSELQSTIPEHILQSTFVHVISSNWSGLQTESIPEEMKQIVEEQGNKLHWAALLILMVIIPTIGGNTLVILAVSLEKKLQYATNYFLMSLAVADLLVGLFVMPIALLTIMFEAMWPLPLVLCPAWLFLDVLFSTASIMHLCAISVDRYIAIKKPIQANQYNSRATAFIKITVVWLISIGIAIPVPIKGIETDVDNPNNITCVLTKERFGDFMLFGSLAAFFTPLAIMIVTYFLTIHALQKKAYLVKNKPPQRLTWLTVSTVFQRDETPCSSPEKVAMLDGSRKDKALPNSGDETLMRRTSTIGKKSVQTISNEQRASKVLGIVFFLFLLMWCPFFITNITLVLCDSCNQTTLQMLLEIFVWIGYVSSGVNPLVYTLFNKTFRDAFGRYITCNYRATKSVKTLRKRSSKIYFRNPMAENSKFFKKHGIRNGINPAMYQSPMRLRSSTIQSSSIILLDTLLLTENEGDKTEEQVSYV

| Compound | Ki (5-HT2B [1]) [nM] | Ki (5-HT2C [2]) [nM] | Ki (5-HT2A [3]) [nM] | EC50 (5-HT2B [4]) [nM] | EC50 (5-HT2A [5]) [nM] | melting point [°C] | EC50 (human 5-HT2C-INI) [nM] | Emax (human 5-HT2C-INI) [%] | percent Vmax relative to serotonin at 100%, 5-HT2A (5-HT2A [5]) | % of Control (food consumption 60 min. after injection) ([8]; 10 mg/kg i.p.) [%] | % of Control (food consumption 90 min. after injection) ([8]; 10 mg/kg i.p.) [%] | Mean food consumption 60 min. after injection: g (±SEM) Compound ([8]; 10 mg/kg i.p.) | Mean food consumption 90 min. after injection: g (±SEM) Compound ([8]; 10 mg/kg i.p.) | % of Control (food consumption 60 min. after injection) ([8]; 20 mg/kg i.p.) [%] | % of Control (food consumption 90 min. after injection) ([8]; 20 mg/kg i.p.) [%] | Mean food consumption 60 min. after injection: g (±SEM) Compound ([8]; 20 mg/kg i.p.) | Mean food consumption 90 min. after injection: g (±SEM) Compound ([8]; 20 mg/kg i.p.) | % of Control (food consumption 60 min. after injection) ([8]; 30 mg/kg i.p.) [%] | % of Control (food consumption 90 min. after injection) ([8]; 30 mg/kg i.p.) [%] | Mean food consumption 60 min. after injection: g (±SEM) Compound ([8]; 30 mg/kg i.p.) | other results |
| --- | --- | --- | --- | --- | --- | --- | --- | --- | --- | --- | --- | --- | --- | --- | --- | --- | --- | --- | --- | --- | --- |
| CN(C)CCc1cn(CCF)c2c(F)ccc(O)c12 [Compound O-3975, 3-(2-Dimethylaminoethyl)-7-fluoro-1-(2-fluoroethyl)-1H-indol-4-ol] | 2.77 ± 0.31 | 7.74 ± 0.65 | 308 ± 61.4 | > 10000 | 614 | 97 to 101 | > 2000 | – | – | – | – | – | – | – | – | – | – | – | – | – | – |
| CCn1cc(CCN(C)C)c2c(O)ccc(F)c21 [Compound O-3943, 3-(2-Dimethylaminoethyl)-7-fluoro-1-ethyl-1H-indol-4-ol] | 2.5 ± 0.84 | 9.1 ± 3.99 | 97 ± 35 | > 10000 | 12.9 | 114 to 120 | 5.4 ± 2.5 | 100 | – | – | – | – | – | – | – | – | – | – | – | – | – |
| CCCn1cc(CCN(C)C)c2c(O)ccc(F)c21 [Compound O-3952, 3-(2-Dimethylaminoethyl)-7-fluoro-1-propyl-1H-indol-4-ol] | 2.79 ± 0.31 | 10.5 ± 2.39 | 492 ± 79.3 | > 10000 | 1280 | 75 to 79 | 11 ± 4 | 89 | 103% +/− 7 | – | – | – | – | – | – | – | – | – | – | – | – |
| CN(C)CCc1cn(C)c2c(F)ccc(OP(=O)(O)O)c12 [Compound O-3944, 3-(2-Dimethylaminoethyl)-7-fluoro-1-methyl-1H-indol-4-phosphate] | – | – | – | – | – | – | – | – | – | 74 | 75 | 0.84 (.17) g | 1.38 (.13) g | 41 | 62 | 0.56 (.10)* g | 1.05 (.14)* g | 15 | 55 | 0.13 (.05)* g | Average Number of Scratches 30 min. after injection ([6]; 30 mg/kg i.p. 5 minutes before inducer 48-80): 0*; Number of Scratches as Percentage of Control ([6]; 30 mg/kg i.p., inducer 48-80): 0%; Day 7 % Δ from starting weight [7, 11]: −1.75* %; Day 7 Difference within same group [7, 11]: -0.78 g; Day 14 % Δ from starting weight [7, 11]: −2.04* %; Day 14 Difference within same group [7, 11]: -0.91 g; Day 7 % Δ from starting weight [7, 12]: −3.66* %; Day 7 Difference within same group [7, 12]: -1.89 g; Day 14 % Δ from starting weight [7, 12]: −4.13* %; Day 14 Difference within same group [7, 12]: -2.13 g; Mean food consumption 90 min. after injection: g (±SEM) Compound ([8]; 30 mg/kg i.p.): 0.65 (.11)* g; Average Number of Scratches 30 min. after injection ([9]; 2 mg/kg i.p. 5 minutes before inducer Serotonin): 231.6; Number of Scratches as Percentage of Control ([9]; 2 mg/kg i.p.): 39.3%; Average Number of Scratches 30 min. after injection [9, 13]: 113.4*; Number of Scratches as Percentage of Control ([9]; 5 mg/kg i.p.): 20.2% |
| CN(C)CCc1cn(C)c2c(F)ccc(O)c12 [Compound O-3804, 3-(2-Dimethylaminoethyl)-7-fluoro-1-methyl-1H-indol-4-ol] | 3.64 | 25.4 | 68.2 | 35.4 ± 1.31 | 129 ± 1.44 | 134 to 138 | 0.517 | 89.9 | (125.4% ± 6.225%) | 114 | 96 | 1.3 (.14) g | 1.76 (.15) g | 99 | 107 | 1.48 (.19) g | 1.86 (.20) g | 56 | 77 | 0.79 (.09)* g | Mean food consumption 90 min. after injection: g (±SEM) Compound ([8]; 30 mg/kg i.p.): 1.37 (.11) g; Average Number of Scratches 30 min. after injection [9, 13]: 128.4; Number of Scratches as Percentage of Control ([9]; 5 mg/kg i.p.): 34.2%; Average Number of Scratches 30 min. after injection ([9]; 20 mg/kg i.p. 5 minutes before inducer Serotonin): 12.8*; Number of Scratches as Percentage of Control ([9]; 20 mg/kg i.p.): 2.2%; percent Vmax relative to serotonin at 100%, 5-HT2B (5-HT2B [4]; value in brackets): (7.0 ± 0.92%) |
| C[C@H](N)Cn1ccc2cc(F)c(Cl)cc21 [Ro 60-0175] | – | – | – | – | – | – | – | – | – | – | – | – | – | – | – | – | – | – | – | – | times more active at 5-HT2C as compared to 5-HT2A (5-HT2C [10]): 25 times |
